The values that follow come from ChEMBL document CHEMBL1201862, “PubChem BioAssay data set” (2004).

Holding throughout (assay): inhibition of tumour cell growth, NCI panel, 48 h
In assay [1] the test system is SN12C.
The subject of assay [2] is SK-MEL-28.
The subject of assay [3] is NCI-H460.
Assay [4] has as its system HCC 2998.
Assay [5] relates to NCI/ADR-RES.
Assay [6] deals with TK-10.
In assay [7] the test system is SF-268.
Assay [8] has as its system SW-620.
In assay [9] the test system is RXF 393.
Assay [10] deals with HT-29.
Assay [11] relates to SNB-75.
In assay [12] the test system is A498.
The subject of assay [13] is EKVX.
For assay [14], the system named is OVCAR-8.
The test system of assay [15] is SK-OV-3.
In assay [16] the test system is CAKI-1.
Assay [17] relates to Hs-578T.
Assay [18] relates to NCI-H226.
The subject of assay [19] is U-251.

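Where inhibition never reached the appropriate level, the endpoint shown equals the highest concentration tested. Otherwise, values were interpolated linearly from a five-concentration, 48-hour dose response in 96-well plates. GI50 marks 50% less growth.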 The source made the active and inactive calls. No stated cut-off is given here; in the data, active = GI50 up to about 1.1 µM and inactive = higher.

Consider `O=C(O)c1ccc(C(=O)O)c(C(=O)Nc2ccc3c(c2)C(=O)c2ccccc2-3)c1`, for which the GI50 in assay [1], in assay [2], in [3], in [4], in [5] and in assay [6] was > 100 µM (inactive) in each case. Further, the GI50 in [7], in [8], in [9], in assay [10], in [11] and in assay [12] was > 100 µM (inactive) each time. For the same molecule, the GI50 in assay [13], in assay [14], in [15], in assay [16], in [17] and in assay [18] was > 100 µM (inactive) each time. Moreover, the GI50 in assay [19] was > 100 µM (inactive).

For `O=C(CSc1ncccn1)N/N=C/c1ccccc1OCc1ccccc1`, the GI50 is 27.2 µM (inactive) in assay [1]; 36.6 µM (inactive) in [2]; 30.1 µM (inactive) in [3]; 27.8 µM (inactive) in assay [4]; 25.9 µM (inactive) in assay [5]; 23.4 µM (inactive) in assay [6]. Further, the GI50 in assay [7] was 43 µM (inactive); in assay [8] it was 29.6 µM (inactive); in [9] it was 21.9 µM (inactive); in assay [10] it was 34.1 µM (inactive); in assay [11], 21.5 µM (inactive); in assay [12], 22.1 µM (inactive). Besides, the GI50 in assay [13] is 27.9 µM (inactive); in assay [14], 28.7 µM (inactive); in assay [15], 37.6 µM (inactive); in assay [16], 26.4 µM (inactive); in assay [17] it was 37.8 µM (inactive); in assay [18] it was 20.6 µM (inactive). Further, the GI50 in [19] was 26.8 µM (inactive).

On to `COc1ccc(C(=O)/C=C/c2ccc(OCC#N)cc2)cc1`, for which the GI50 in assay [1] was 19.9 µM (inactive); in [2], 17.1 µM (inactive); in assay [3] it was 27.3 µM (inactive); in assay [4], 17.3 µM (inactive); in assay [5], 20.9 µM (inactive); in assay [6], 38.3 µM (inactive). In addition, the GI50 is 34.1 µM (inactive) in [7]; 17.3 µM (inactive) in [8]; 16.3 µM (inactive) in assay [9]; 33.3 µM (inactive) in assay [10]; 77.1 µM (inactive) in [11]; 30.6 µM (inactive) in assay [12]. Further, the GI50 was 74.5 µM (inactive) in assay [13]; 34.5 µM (inactive) in assay [14]; 43.3 µM (inactive) in assay [15]; 19.5 µM (inactive) in assay [16]; 27.7 µM (inactive) in assay [17]; 24.7 µM (inactive) in assay [18]. In addition, the GI50 in assay [19] was 17.4 µM (inactive).

Take `Cc1ccnc2nc(-c3cccc4ccccc34)cc(O)c12`: the GI50 in assay [1] was 0.127 µM (active); in [2], 0.00395 µM (active); in [3], 0.0121 µM (active); in assay [4], 0.0573 µM (active); in [5] it was 0.00237 µM (active); in assay [6], 0.454 µM (active). The GI50 in assay [7] is 0.00867 µM (active); in [8], 0.00379 µM (active); in assay [9] it was 0.0879 µM (active); in assay [10] it was 0.00296 µM (active); in assay [11], 0.00255 µM (active); in assay [12] it was 0.00167 µM (active). Also, the GI50 is 0.0272 µM (active) in [13]; 0.0203 µM (active) in [14]; 0.00471 µM (active) in assay [15]; 0.0121 µM (active) in assay [16]; 0.0141 µM (active) in assay [17]; 0.0336 µM (active) in [18]. Besides, the GI50 in assay [19] is 0.00445 µM (active).

For the molecule `NS(=O)(=O)c1ccc(NC(=O)N/N=C/c2ccccc2O)cc1`, the GI50 is 85.3 µM (inactive) in [1]; 85.1 µM (inactive) in [2]; 67.9 µM (inactive) in assay [3]; 40.7 µM (inactive) in [4]; 68.4 µM (inactive) in [5]; > 100 µM (inactive) in [6]. Also, the GI50 in assay [7] is 49 µM (inactive); in [8], 74.3 µM (inactive); in assay [9] it was > 100 µM (inactive); in assay [10], 45.5 µM (inactive); in assay [11], 56.9 µM (inactive); in assay [12], > 100 µM (inactive). For the same molecule, the GI50 in assay [13] was > 100 µM (inactive); in [14] it was 45.1 µM (inactive); in assay [15], 81.5 µM (inactive); in [16], 94.4 µM (inactive); in [17], 60.5 µM (inactive); in assay [18] it was 66.1 µM (inactive). For the same molecule, the GI50 in assay [19] was 50.1 µM (inactive).

Regarding `CCN(CC)CCC(=O)c1ccc(Sc2ccc(F)cc2)cc1`, the GI50 was 21.7 µM (inactive) in assay [1]; 17.8 µM (inactive) in assay [2]; 17.7 µM (inactive) in [3]; 32.6 µM (inactive) in assay [4]; 24.3 µM (inactive) in assay [5]; 14.4 µM (inactive) in assay [6]. Further, the GI50 was 15.8 µM (inactive) in assay [7]; 19.9 µM (inactive) in [8]; 17 µM (inactive) in assay [9]; 21.8 µM (inactive) in [10]; 17.5 µM (inactive) in assay [11]; 26.4 µM (inactive) in assay [12]. Besides, the GI50 is 19.9 µM (inactive) in [13]; 19.4 µM (inactive) in assay [14]; 23.3 µM (inactive) in [15]; 16 µM (inactive) in assay [16]; 15.8 µM (inactive) in assay [17]; 16 µM (inactive) in [18]. Moreover, in assay [19], the GI50 was 16 µM (inactive).

As for `Clc1ccc(Nc2nnc(CNc3ccc(-c4nnc(Nc5ccc(Cl)cc5)o4)cc3)o2)cc1`, the GI50 in assay [1] is 16 µM (inactive); in [2], 17.2 µM (inactive); in [3], 14.9 µM (inactive); in [4], 5.14 µM (inactive); in [5] it was 29.7 µM (inactive); in assay [6], 14 µM (inactive). The GI50 in assay [7] is 21.2 µM (inactive); in assay [8] it was 20.9 µM (inactive); in [9] it was 18.5 µM (inactive); in [10] it was 12.2 µM (inactive); in assay [11], 24.8 µM (inactive); in [12] it was 14.9 µM (inactive). Besides, the GI50 in assay [13] was 22.3 µM (inactive); in assay [14], 8.87 µM (inactive); in assay [15], 22.6 µM (inactive); in assay [16], 17.9 µM (inactive); in [17], 17.8 µM (inactive); in assay [18], 20.9 µM (inactive). In addition, the GI50 in assay [19] was 8.71 µM (inactive).

On to `O=S1(=O)c2cnccc2N=C(NCc2ccccc2)N1c1ccccc1`, for which the GI50 was 71.9 µM (inactive) in assay [1]; > 100 µM (inactive) in assay [2]; 49.7 µM (inactive) in assay [3]; 67.1 µM (inactive) in assay [4]; 68.1 µM (inactive) in assay [5]; 30.1 µM (inactive) in assay [6]. Besides, the GI50 in assay [7] was > 100 µM (inactive); in [8] it was > 100 µM (inactive); in [9], > 100 µM (inactive); in [10], 81.1 µM (inactive); in assay [11] it was 69.5 µM (inactive); in assay [12] it was > 100 µM (inactive). For the same molecule, the GI50 in [13] was > 100 µM (inactive); in assay [14], 78 µM (inactive); in assay [15], > 100 µM (inactive); in assay [16], > 100 µM (inactive); in [17] it was 58.3 µM (inactive); in assay [18] it was > 100 µM (inactive). Besides, the GI50 in assay [19] was 98.2 µM (inactive).

With `CC(C)[Si](OC1=C(C(=O)Nc2ccccc2Cl)CCCCC1)(C(C)C)C(C)C`, the GI50 in assay [1], in assay [2], in [3], in assay [4], in assay [5] and in assay [6] was > 100 µM (inactive) throughout. The GI50 in [7] was > 100 µM (inactive); in [8] it was > 100 µM (inactive); in assay [9], > 100 µM (inactive); in [10], > 100 µM (inactive); in [11], > 78.2 µM (inactive); in assay [12] it was > 100 µM (inactive). Further, the GI50 in assay [13], in assay [14], in assay [15], in [16], in assay [17] and in [18] was > 100 µM (inactive) each time. In assay [19], the GI50 was > 100 µM (inactive).

Turning to `COc1ccc(N/N=C2\C3=C(CCC(C)(C)O3)C(=O)c3ccccc32)cc1`, the GI50 in assay [1] is 17.9 µM (inactive); in assay [2], 22.2 µM (inactive); in assay [3], 14.2 µM (inactive); in [4], 12.1 µM (inactive); in [5] it was 19.6 µM (inactive); in assay [6], 20.5 µM (inactive). Moreover, the GI50 in [7] is 15.3 µM (inactive); in [8], 34 µM (inactive); in [9], 12.4 µM (inactive); in assay [10], 13.6 µM (inactive); in assay [11] it was 19 µM (inactive); in [12] it was 15 µM (inactive). Moreover, the GI50 is 18.1 µM (inactive) in assay [13]; 26.5 µM (inactive) in assay [14]; 37 µM (inactive) in assay [15]; 20 µM (inactive) in assay [16]; 19.1 µM (inactive) in [17]; 52.6 µM (inactive) in assay [18]. In addition, the GI50 in assay [19] was 19.2 µM (inactive).
